Data from patent US10821115B2, “Compounds that inhibit Mcl-1 protein” (priority 2017, dated 2020).
pIC50: −log10 of the molar value.

Target: recombinant human Mcl-1 (residues 171-327) / Bim interaction (Homo sapiens (Human), UniProt Q07820)
Assay: biochemical
Type: binding
Conditions: 0.1 nM Mcl-1(171-327), 0.05 nM biotin-Bim (51-76); read-out: Mcl-1 HTRF IC50

Chain of recombinant human Mcl-1 (residues 171-327) / Bim interaction (Q07820 171-327): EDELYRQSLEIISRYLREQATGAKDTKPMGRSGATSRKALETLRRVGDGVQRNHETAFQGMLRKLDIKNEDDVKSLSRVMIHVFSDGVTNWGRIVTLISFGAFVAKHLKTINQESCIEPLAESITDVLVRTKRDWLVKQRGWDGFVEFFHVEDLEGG

Row | SMILES | pIC50
1 | CCO[C@@]1(CN2CCN3CCOC[C@@H]3C2)/C=C/C[C@H](C)[C@@H](C)S(=O)(=O)NC(=O)c2ccc3c(c2)N(C[C@@H]2CC[C@H]21)C[C@@]1(CCCc2ccccc21)CO3 [Example 105, (1S,3′R,6′R,7′S,8′E,11′S,12′R)-7′-ethoxy-7′-((9aS)-hexahydropyrazino[2,1-c][1,4]oxazin-8(1H)-ylmethyl)-11′,12′-dimethyl-3,4-dihydro-2H, 15′H-spiro[naphthalene-1,22′-[20]oxa[13]thia[1,14]diazatetracyclo[14.7.2.0-3,6˜.0˜19,24˜]pentacosa[8,16,18,24]tetraen]-15′-one 13′,13′-dioxide] | 9.37
2 | C[C@@H]1[C@@H](C)C/C=C/[C@]2(CN3CCOC[C@@H]3CO2)[C@@H]2CC[C@H]2CN2C[C@@]3(CCCc4cc(Cl)ccc43)COc3ccc(cc32)C(=O)NS1(=O)=O [Example 131] | 9.60
3 | CC(C)N1CCO[C@]2(/C=C/C[C@H](C)[C@@H](C)S(=O)(=O)NC(=O)c3ccc4c(c3)N(C[C@@H]3CC[C@H]32)C[C@@]2(CCCc3cc(Cl)ccc32)CO4)C1 [Example 127, (1 S,3′R,6′R,7′S,8′E, 11′S,12′R)-6-chloro-11′,12′-dimethyl-4″-(1-methylethyl)-3,4-dihydro-2H,15′H-dispiro[naphthalene-1,22′-[20]oxa[13]thia[1,14]diazatetracyclo[14.7.2.0-3,6˜.0˜19,24˜]pentacosa[8,16,18,24]tetraene-7′,2″-[1,4]oxazinan]-15′-one 13′,13′-dioxide] | 9.40
4 | C[C@@H]1[C@@H](C)C/C=C/[C@@]2(CN3CCOC[C@H]3CO2)[C@@H]2CC[C@H]2CN2C[C@@]3(CCCc4cc(Cl)ccc43)COc3ccc(cc32)C(=O)NS1(=O)=O [Example 99, (1S,3′R,6′R,7′S,8′E,9a″S,11′S,12′R)-6-chloro-11′,12′-dimethyl-3,4,6″,7″,9″,9a″-hexahydro-1″H,2H,15′H-dispiro[naphthalene-1,22′-[20]oxa[13]thia[1,14]diazatetracyclo[14.7.2.0˜3,6˜.0˜19,24˜]pentacosa[8,16,18,24]tetraene-7′,3″-[1,4]oxazino[3,4-c][1,4]oxazin]-15′-one 13′,13′-dioxide] | 9.61
5 | C[C@@H]1[C@@H](C)C/C=C/[C@]2(CN(C)CCO2)[C@@H]2CC[C@H]2CN2C[C@@]3(CCCc4cc(Cl)ccc43)COc3ccc(cc32)C(=O)NS1(=O)=O [Example 130] | 9.04

Same assay, conditions: Mcl-1 HTRF IC50

Row | SMILES | pIC50
6 | C[C@@H]1[C@@H](C)C/C=C/[C@](O)(CS(=O)(=O)N(C)C)[C@@H]2CC[C@H]2CN2C[C@@]3(CCCc4cc(Cl)ccc43)COc3ccc(cc32)C(=O)NS1(=O)=O (single isomer, unassigned) [Example 100293] | 9.28

Same assay, conditions: TR-FRET, Mcl-1(171-327) / biotin-Bim (51-76); read-out: Mcl-1 HTRF IC50

Row | SMILES | pIC50
7 | C[C@@H]1[C@@H](C)C/C=C/[C@@](O)(C(F)F)[C@@H]2CC[C@H]2CN2C[C@@]3(CCCc4cc(Cl)ccc43)COc3ccc(cc32)C(=O)NS1(=O)=O [Example 100070, (1S,3′R,6′R,7′S,8′E,11′S,12′R)-6-chloro-7′-(difluoromethyl)-7′-hydroxy-11′,12′-dimethyl-3,4-dihydro-2H,15′H-spiro[naphthalene-1,22′-[20]oxa[13]thia[1,14]diazatetracyclo [14.7.2.0~3,6~.0~19,24~]pentacosa[8,16,18,24]tetraen]-15′-one 13′,13′-dioxide] | 8.31
8 | CC#C[C@@]1(O)CCCCCS(=O)(=O)NC(=O)c2ccc3c(c2)N(C[C@@H]2CC[C@H]21)C[C@@]1(CCCc2cc(Cl)ccc21)CO3 [Example 100026, (1S,3′R,6′R,7′R)-6-chloro-7′-hydroxy-7′-(1-propyn-1-yl)-3,4-dihydro-2H,15′H-spiro[naphthalene-1,22′-[20]oxa[13]thia[1,14]diazatetracyclo [14.7.2.0~3,6~.0~19,24~]pentacosa[16,18,24]trien]-15′-one 13′,13′-dioxide] | 8.67
9 | CO[C@@]1(CCN(C)C2CCCC2)/C=C/C[C@H](C)[C@@H](C)S(=O)(=O)NC(=O)c2ccc3c(c2)N(C[C@@H]2CC[C@H]21)C[C@@]1(CCCc2cc(Cl)ccc21)CO3 [Example 100418, (1S,3′R,6′R,7′S,8′E,11′S,12′R)-6-chloro-7′-(2-(cyclopentyl(methyl)amino)ethyl)-7′-methoxy-11′,12′-dimethyl-3,4-dihydro-2H,15′H-spiro[naphthalene-1,22′-[20]oxa[13]thia[1,14]diazatetracyclo [14.7.2.0~3,6~.0~19,24~]pentacosa[8,16,18,24]tetraen]-15′-one 13′,13′-dioxide] | 10.01
10 | C[C@H]1CC/C=C/[C@@](C)(O)[C@@H]2CC[C@H]2CN2C[C@@]3(CCCc4cc(Cl)ccc43)COc3ccc(cc32)C(=O)NS1(=O)=O (single isomer, unassigned) [Example 100032] | 9.35
11 | CO[C@@]1(CO)/C=C/C[C@H](C)[C@@H](C)S(=O)(=O)NC(=O)c2ccc3c(c2)N(C[C@@H]2CC[C@H]21)C[C@@]1(CCCc2cc(Cl)ccc21)CO3 [Example 100001, (1 S,3′R,6′R,7′S, 8′E,11′S, 12′R)-6-chloro-7′-(hydroxymethyl)-7′-methoxy-11′,12′-dimethyl-3,4-dihydro-2H, 15′H-spiro[naphthalene-1,22′-[20]oxa[13]thia[1,14]diazatetracyclo[14.7.2.˜3,6˜.0˜19,24˜]pentacosa[8,16,18,24]tetraen]-15′-one 13′,13′-dioxide] | 10.26
12 | C[C@H]1CC/C=C/[C@](C)(O)[C@@H]2CC[C@H]2CN2C[C@@]3(CCCc4cc(Cl)ccc43)COc3ccc(cc32)C(=O)NS1(=O)=O (single isomer, unassigned) [Example 100028] | 8.90
13 | N#C[C@]1(O)CCCCCS(=O)(=O)NC(=O)c2ccc3c(c2)N(C[C@@H]2CC[C@H]21)C[C@@]1(CCCc2cc(Cl)ccc21)CO3 [Example 100027, (1S,3′R,6′R,7′S)-6-chloro-7′-hydroxy-15′-oxo-3,4-dihydro-2H-spiro[naphthalene-1,22′-[20]oxa[13]thia[1,14]diazatetracyclo [14.7.2.0~3,6~.0~19,24~]pentacosa[16,18,24]triene]-7′-carbonitrile 13′,13′-dioxide] | 8.13
14 | O=C1NS(=O)(=O)CCCCC[C@@](O)(CO)[C@@H]2CC[C@H]2CN2C[C@@]3(CCCc4cc(Cl)ccc43)COc3ccc1cc32 [Example 100022, (1S,3′R,6′R,7′S)-6-chloro-7′-hydroxy-7′-(hydroxymethyl)-3,4-dihydro-2H,15′H-spiro[naphthalene-1,22′-[20]oxa[13]thia[1,14]diazatetracyclo [14.7.2.0~3,6~.0~19,24~]pentacosa[16,18,24]trien]-15′-one 13′,13′-dioxide] | 9.06
15 | C[C@H]1CC/C=C/[C@@](C)(O)[C@@H]2CC[C@H]2CN2C[C@@]3(CCCc4cc(Cl)ccc43)COc3ccc(cc32)C(=O)NS1(=O)=O [Example 100030, (1S,3′R,6′R,7′R,8′E,12′S)-6-chloro-7′-hydroxy-7′,12′-dimethyl-3,4-dihydro-2H,15′H-spiro[naphthalene-1,22′-[20]oxa[13]thia[1,14]diazatetracyclo [14.7.2.0~3,6~.0~19,24~]pentacosa[8,16,18,24]tetraen]-15′-one 13′,13′-dioxide] | 7.98
16 | CO[C@]1(CO)/C=C/C[C@H](C)[C@@H](C)S(=O)(=O)NC(=O)c2ccc3c(c2)N(C[C@@H]2CC[C@H]21)C[C@@]1(CCCc2cc(Cl)ccc21)CO3 [Example 100312, (1S,3′R,6′R,7′R,8′E,11′S,12′R)-6-chloro-7′-(hydroxymethyl)-7′-methoxy-11′,12′-dimethyl-3,4-dihydro-2H,15′H-spiro[naphthalene-1,22′-[20]oxa[13]thia[1,14]diazatetracyclo [14.7.2.0~3,6~.0~19,24~]pentacosa[8,16,18,24]tetraen]-15′-one 13′,13′-dioxide] | 10.06
17 | CC[C@@H]1CC/C=C/[C@@](O)(CO)[C@@H]2CC[C@H]2CN2C[C@@]3(CCCc4cc(Cl)ccc43)COc3ccc(cc32)C(=O)NS1(=O)=O [Example 100034, (1S,3′R,6′R,7′S,8′E,12′R)-6-chloro-12′-ethyl-7′-hydroxy-7′-(hydroxymethyl)-3,4-dihydro-2H,15′H-spiro[naphthalene-1,22′-[20]oxa[13]thia[1,14]diazatetracyclo [14.7.2.0~3,6~.0~19,24~]pentacosa[8,16,18,24]tetraen]-15′-one 13′,13′-dioxide] | 9.06
18 | C[C@@H]1[C@@H](C)C/C=C/[C@@](O)(C#CCCCN2CCOCC2)[C@@H]2CC[C@H]2CN2C[C@@]3(CCCc4cc(Cl)ccc43)COc3ccc(cc32)C(=O)NS1(=O)=O [Example 100493, (1S,3′R,6′R,7′S,8′E,11′S,12′R)-6-chloro-7′-hydroxy-11′,12′-dimethyl-7′-(5-(4-morpholinyl)-1-pentyn-1-yl)-3,4-dihydro-2H,15′H-spiro[naphthalene-1,22′-[20]oxa[13]thia[1,14]diazatetracyclo [14.7.2.0~3,6~.0~19,24~]pentacosa[8,16,18,24]tetraen]-15′-one 13′,13′-dioxide] | 9.49

Same assay, conditions: read-out: Mcl-1 HTRF IC50

Row | SMILES | pIC50
19 | C[C@H]1CCCC[C@](C)(O)[C@@H]2CC[C@H]2CN2C[C@@]3(CCCc4cc(Cl)ccc43)COc3ccc(cc32)C(=O)NS1(=O)=O [Example 100031, (1S,3′R,6′R,7′S,12′S)-6-chloro-7′-hydroxy-7′,12′-dimethyl-3,4-dihydro-2H,15′H-spiro[naphthalene-1,22′-[20]oxa[13]thia[1,14]diazatetracyclo [14.7.2.0~3,6~.0~19,24~]pentacosa[16,18,24]trien]-15′-one 13′,13′-dioxide] | 8.13
20 | C[C@@H]1[C@@H](C)C/C=C/[C@@](O)(CS(=O)(=O)N(C)C)[C@@H]2CC[C@H]2CN2C[C@@]3(CCCc4cc(Cl)ccc43)COc3ccc(cc32)C(=O)NS1(=O)=O (single isomer, unassigned) [Example 100020] | 10.49

System: human multiple myeloma cell line, OPM-2
Assay: Cell viability assay (OPM-2 10 FBS), CellTiter-Glo
Type: cell-based
Conditions: read-out: OPM-2 10% FBS IC50 IP; OPM-2 cells, 10% FBS, 16 h, CellTiter-Glo
Procedure, shortened: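 Serially diluted test compounds are incubated 16 h with cells (3000/well) in RPMI 1640 supplemented with 10% FBS. Viability is then measured by luminescence and IC50 calculated by 4-parameter logistic fit.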

Row | SMILES | pIC50
21 | C[C@@H]1[C@@H](C)C/C=C/[C@@](O)(C(F)F)[C@@H]2CC[C@H]2CN2C[C@@]3(CCCc4cc(Cl)ccc43)COc3ccc(cc32)C(=O)NS1(=O)=O [Example 100070, (1S,3′R,6′R,7′S,8′E,11′S,12′R)-6-chloro-7′-(difluoromethyl)-7′-hydroxy-11′,12′-dimethyl-3,4-dihydro-2H,15′H-spiro[naphthalene-1,22′-[20]oxa[13]thia[1,14]diazatetracyclo [14.7.2.0~3,6~.0~19,24~]pentacosa[8,16,18,24]tetraen]-15′-one 13′,13′-dioxide] | 5.97
